{"source": "paper PMC12445692", "about": "(2025)", "key": {"[1]": {"system": "MYC G4 (Myc2345_T23) (DNA, G4) TGAGGGTGGGTAGGGTGGGTAA", "assay": "ESI mass spectrometry", "conditions": "K+ (20 mM potassium phosphate, 80 mM KCl); pH 7.4, 100 μM DNA"}, "[2]": {"system": "Myc2345 (DNA, G4) TGAGGGTGGGTAGGGTGGGGAA", "assay": "ESI mass spectrometry", "conditions": "K+ (20 mM potassium phosphate, 80 mM KCl); pH 7.4, 100 μM DNA"}, "[3]": {"system": "MYC G4 (Myc2345_T23) (DNA, G4) TGAGGGTGGGTAGGGTGGGTAA", "assay": "NMR solution structure", "conditions": "K+ (2 mM potassium phosphate, 8 mM KCl); pH 7.4, 298 K"}, "[4]": {"system": "Myc2345 (DNA, G4) TGAGGGTGGGTAGGGTGGGGAA", "assay": "1H NMR titration and 15N HSQC"}, "[5]": {"system": "MYC G4 (Myc2345_T23) (DNA, G4) TGAGGGTGGGTAGGGTGGGTAA", "assay": "differential scanning calorimetry", "conditions": "100 μM DNA, DNA:ligand 1:4 (400 μM BTO-28), 1.0°C/min"}, "[6]": {"system": "Myc2345 (DNA, G4) TGAGGGTGGGTAGGGTGGGGAA", "assay": "differential scanning calorimetry", "conditions": "100 μM DNA, DNA:ligand 1:4 (400 μM BTO-28), 1.0°C/min"}, "[7]": {"system": "NHE III1 (DNA, G4) TGGGGAGGGTGGGGAGGGTGGGGAAGG", "assay": "differential scanning calorimetry", "conditions": "100 μM DNA, DNA:ligand 1:4 (400 μM BTO-28), 1.0°C/min"}, "[8]": {"system": "dsDNA (DNA, duplex) CAATCGGATCGAATTCGATCCGATTG", "assay": "differential scanning calorimetry", "conditions": "100 μM DNA, DNA:ligand 1:4 (400 μM BTO-28), 1.0°C/min"}, "[9]": {"system": "5'-Cy5 MYC G4 (DNA, G4) TGAGGGTGGGTAGGGTGGGTAA", "assay": "fluorescence polarization, single-site fit", "conditions": "K+ (20 mM potassium phosphate, 80 mM KCl); pH 7.4, room temperature, 20 nM DNA; high-affinity site; Cy5 end not given, 5' inferred"}, "[10]": {"system": "3'-Cy5 MYC G4 (DNA, G4) TGAGGGTGGGTAGGGTGGGTAA", "assay": "fluorescence polarization, single-site fit", "conditions": "K+ (20 mM potassium phosphate, 80 mM KCl); pH 7.4, room temperature, 20 nM DNA; weaker than 5' end"}, "[11]": {"system": "5'-Cy5 dsDNA (DNA, duplex) CAATCGGATCGAATTCGATCCGATTG", "assay": "fluorescence polarization, single-site fit", "conditions": "K+ (20 mM potassium phosphate, 80 mM KCl); pH 7.4, room temperature, 20 nM DNA; ligand 0-2 μM"}, "[12]": {"system": "5'-Cy5 KRAS (DNA, G4) AGGGCGGTGTGGGAAGAGGGAAGAGGGGGAGGCAG", "assay": "fluorescence polarization, single-site fit", "conditions": "K+ (20 mM potassium phosphate, 80 mM KCl); pH 7.4, room temperature, 20 nM DNA; ligand 0-2 μM"}, "[13]": {"system": "5'-Cy5 RET (DNA, G4) GGGGCGGGGCGGGGCGGGGG", "assay": "fluorescence polarization, single-site fit", "conditions": "K+ (20 mM potassium phosphate, 80 mM KCl); pH 7.4, room temperature, 20 nM DNA; ligand 0-2 μM"}, "[14]": {"system": "5'-Cy5 hTERT (DNA, G4) GGGTTAGGGTTAGGGTTAGGGTTAGGGTTAG", "assay": "fluorescence polarization, single-site fit", "conditions": "K+ (20 mM potassium phosphate, 80 mM KCl); pH 7.4, room temperature, 20 nM DNA; ligand 0-2 μM"}, "[15]": {"system": "5'-Cy5 KIT (DNA, G4) GGGAGGGAGGGCGCTGGGAGGAGGG", "assay": "fluorescence polarization, single-site fit", "conditions": "K+ (20 mM potassium phosphate, 80 mM KCl); pH 7.4, room temperature, 20 nM DNA; ligand 0-2 μM"}}, "data": [{"smiles": "Cc1cc(/C=C2\\Sc3ccccc3N2CCCN2CCCC2)c2ccccc2[n+]1C", "values": [{"measurement": "binding", "setting": "[1]", "result": "yes"}, {"measurement": "binding", "setting": "[2]", "result": "yes"}, {"measurement": "binding", "setting": "[3]", "result": "yes"}, {"measurement": "binding", "setting": "[4]", "result": "yes"}, {"measurement": "ΔTm", "setting": "[5]", "result": 25.6, "unit": "°C"}, {"measurement": "ΔTm", "setting": "[6]", "result": 26.0, "unit": "°C"}, {"measurement": "binding", "setting": "[7]", "result": "yes"}, {"measurement": "ΔTm", "setting": "[8]", "result": -4.3, "unit": "°C"}, {"measurement": "KD", "setting": "[9]", "result": 0.0068, "unit": "µM"}, {"measurement": "KD", "setting": "[10]", "result": "0.0898 ± 0.00507", "unit": "µM"}, {"measurement": "KD", "setting": "[11]", "result": "> 2", "unit": "µM"}, {"measurement": "KD", "setting": "[12]", "result": "0.67 ± 0.03509", "unit": "µM"}, {"measurement": "KD", "setting": "[13]", "result": "> 2", "unit": "µM"}, {"measurement": "KD", "setting": "[14]", "result": "> 2", "unit": "µM"}, {"measurement": "KD", "setting": "[15]", "result": "1.246 ± 0.07791", "unit": "µM"}]}]}
